Reference: US6495604B1, “Cycloalkene derivatives, process for producing the same, and use” (Takeda Chemical Industries, Ltd., priority 1998, dated 2002)

tested on: NO production by RAW264.7 cell; assay: NO production-inhibiting effect in RAW264.7 cells (nitrite ion by DAN fluorescence); type: cell-based, mouse; details: Mus musculus, RAW264.7, RAW264.7; LPS 5 ng/ml + interferon gamma 1 U/ml; nitrite ion in culture supernatant after overnight incubation
Protocol: Mouse macrophage cell line RAW264.7 was used as an iNOS-inducible cell and a test compound was examined for its % inhibition of NO production. The test compound was dissolved at 10 mM in N,N-dimethylformamide and diluted with an RPMI-1640 medium at the concentration of 0.1 mM. The concentration was further adjusted using the medium so that a final concentration ranging from 10 μM to 10 nM could be obtained by a 10-fold serial dilution and the test compound was added to a culture medium. On the day before the experiment, the cell was adjusted at 5×10^5/ml in an RPMI-1640 medium supplemented with 10% inactivated fetal calf serum and inoculated to a 96-well microplate at 1×10^5 cells/0.2 ml per well. After incubating at 37° C. under an atmosphere of 5% CO2/95% air overnight, the test compound adjusted as described above was added and then LPS and interferon gamma were added at the final concentrations of 5 ng/ml and 1 U/ml, respectively. After further incubating overnight, culture supernatants were examined for the concentration of nitrite ion (stable metabolite of NO) which was used as an index for the NO production. The nitrite ion concentration was determined by adding 25 μl of 20 μg/ml of 2,3-diaminonaphthalene (DAN) to 50 μl of the culture supernatant, followed by incubating at room temperature for 10 minutes, followed by adding 25 μl of 0.5 N NaOH, followed by determining a fluorescence at 450 nm (excitation wavelength: 365 nm). An IC50 represents the concentration of the test compound which inhibits 50% of the NO production.

| IC50 | Compound |
| --- | --- |
| 4.8 µM | CCOC(=O)C1=C(S(=O)(=O)Nc2ccc(OC)cc2)CCCC1 [Compound 8, ethyl 2-[N-(4-methoxyphenyl)sulfamoyl]-1-cyclohexene-1-carboxylate] |
| 0.35 µM | CCOC(=O)C1=CCCCC1S(=O)(=O)Nc1ccc(Br)cc1F (stereo not drawn) [Compound 34, ethyl 6-[N-(4-bromo-2-fluorophenyl)sulfamoyl]-1-cyclohexene-1-carboxylate] |
| 0.24 µM | CCOC(=O)C1=CCCCC1S(=O)(=O)Nc1cc(Cl)ccc1Cl (stereo not drawn) [Compound 41, ethyl 6-[N-(2,5-dichlorophenyl)sulfamoyl]-1-cyclohexene-1-carboxylate] |
| 0.041 µM | CCOC(=O)C1=CCCCC1S(=O)(=O)Nc1cccc(Cl)c1Cl (stereo not drawn) [Compound 38, ethyl 6-[N-(2,3-dichlorophenyl)sulfamoyl]-1-cyclohexene-1-carboxylate] |
| 2.5 µM | CCOC(=O)C1=CCCCC1S(=O)(=O)Nc1ccc(-n2nccn2)cc1 (stereo not drawn) [Compound 40, ethyl 6-[N-[4-(2H-1,2,3-triazol-2-yl)phenyl)sulfamoyl]-1-cyclohexene-1-carboxylate] |
| 0.35 µM | O=C1C2=CCCCC2S(=O)(=O)N1c1ccc(F)cc1F (stereo not drawn) [Compound 70, 2-(2,4-difluorophenyl)-5,6,7,7a-tetrahydro-1,2-benzoisothiazol-3(2H)-one 1,1-dioxide] |
| 0.082 µM | CCOC(=O)C1=CCCCC1S(=O)(=O)Nc1ccc(Cl)cc1Cl (stereo not drawn) [Compound 35, ethyl 6-[N-(2,4-dichlorophenyl)sulfamoyl]-1-cyclohexene-1-carboxylate] |
| 0.027 µM | CCCOC(=O)C1=CCCCC1S(=O)(=O)Nc1ccc(F)cc1F (stereo not drawn) [Compound 23, propyl 6-[N-(2,4-difluorophenyl)sulfamoyl]-1-cyclohexene-1-carboxylate] |
| 2.6 µM | CCOC(=O)C1=CCCCC1S(=O)(=O)Nc1c(C(C)C)cccc1C(C)C (stereo not drawn) [Compound 4, ethyl 6-[N-(2,6-diisopropylphenyl)sulfamoyl]-1-cyclohexene-1-carboxylate] |
| 1 µM | O=C(OCCO)C1=CCCCC1S(=O)(=O)Nc1ccc(F)cc1F (stereo not drawn) [Compound 56, 2-hydroxyethyl 6-[N-(2,4-difluorophenyl)sulfamoyl]-1-cyclohexene-1-carboxylate] |
| 5.1 µM | O=C1C2=C(CCCC2)S(=O)(=O)N1c1ccc(F)cc1 [Compound 68, 2-(4-fluorophenyl)-4,5,6,7-tetrahydro-1,2-benzoisothiazol-3(2H)-one 1,1-dioxide] |
| 2.4 µM | CCOC(=O)C1=CCCCC1S(=O)(=O)Nc1ccccc1C(=O)OCC (stereo not drawn) [Compound 21, ethyl 6-[N-(2-ethoxycarbonylphenyl)sulfamoyl]-1-cyclohexene-1-carboxylate] |
| 0.073 µM | CCOC(=O)C1=CCCCC1S(=O)(=O)Nc1cc(F)c(F)cc1F (stereo not drawn) [Compound 43, ethyl 6-[N-(2,4,5-trifluorophenyl)sulfamoyl]-1-cyclohexene-1-carboxylate] |
| 0.54 µM | CC(C)(C)OC(=O)COC(=O)C1=CCCCC1S(=O)(=O)Nc1ccc(F)cc1F (stereo not drawn) [Compound 59, t-butyl [6-[N-(2,4-difluorophenyl)sulfamoyl]-1-cyclohexen-1-yl]carbonyloxyacetate] |
| 0.048 µM | CCOC(=O)C1=CCCCC1S(=O)(=O)Nc1c(Cl)cccc1Cl (stereo not drawn) [Compound 47, ethyl 6-[N-(2,6-dichlorophenyl)sulfamoyl]-1-cyclohexene-1-carboxylate] |
| 0.28 µM | CCOC(=O)C1=CCCCC1S(=O)(=O)Nc1cc(F)ccc1F (stereo not drawn) [Compound 15, ethyl 6-[N-(2,5-difluorophenyl)sulfamoyl]-1-cyclohexene-1-carboxylate] |
| 6 µM | COc1ccc(N2C(=O)C3=C(CCCC3)S2(=O)=O)cc1 [Compound 67, 2-(4-methoxyphenyl)-4,5,6,7-tetrahydro-1,2-benzoisothiazole-3(2H)-one 1,1-dioxide] |
| 0.0093 µM | CCOC(=O)C1=CCCCC1S(=O)(=O)Nc1ccc(F)cc1Cl (stereo not drawn) [Compound 29, ethyl 6-[N-(2-chloro-4-fluorophenyl)sulfamoyl]-1-cyclohexene-1-carboxylate] |
| 2.8 µM | CCOC(=O)C1=CCCCCC1S(=O)(=O)Nc1ccc(F)cc1F (stereo not drawn) [Compound 61, ethyl 7-[N-(2,4-difluorophenyl)sulfamoyl]-1-cycloheptene-1-carboxylate] |
| 0.59 µM | CCOC(=O)C1=CCCCC1S(=O)(=O)Nc1ccccc1 (stereo not drawn) [Compound 6, ethyl 6-(N-phenylsulfamoyl)-1-cyclohexene-1-carboxylate] |
| 2 µM | CCOC(=O)C1=CCCCC1S(=O)(=O)Nc1ccccc1C(F)(F)F (stereo not drawn) [Compound 50, ethyl 6-[N-(2-trifluoromethylphenyl)sulfamoyl]-1-cyclohexene-1-carboxylate] |
| 0.25 µM | CCOC(=O)C1=CCCC1S(=O)(=O)Nc1ccc(F)cc1Cl (stereo not drawn) [Compound 64, ethyl 5-[N-(2-chloro-4-fluorophenyl)sulfamoyl]-1-cyclopentene-1-carboxylate] |
| 4.1 µM | CCOC(=O)C1=C(S(=O)(=O)Nc2ccc(Cl)cc2F)CCCC1 [Compound 9, ethyl 2-[N-(4-chloro-2-fluorophenyl)sulfamoyl]-1-cyclohexene-1-carboxylate] |
| 0.78 µM | COC(=O)C1=CCCCC1S(=O)(=O)Nc1ccc(Cl)cc1F (stereo not drawn) [Compound 24, methyl 6-[N-(4-chloro-2-fluorophenyl)sulfamoyl]-1-cyclohexene-1-carboxylate] |
| 4.3 µM | O=C(OCc1ccccc1)C1=CCCCC1S(=O)(=O)Nc1ccc(F)cc1F (stereo not drawn) [Compound 52, benzyl 6-[N-(2,4-difluorophenyl)sulfamoyl]-1-cyclohexene-1-carboxylate] |
| 0.058 µM | CCOC(=O)C1=CCCCC1S(=O)(=O)Nc1ccccc1F (stereo not drawn) [Compound 10, ethyl 6-[N-(2-fluorophenyl)sulfamoyl]-1-cyclohexene-1-carboxylate] |
| 7.9 µM | O=C(O)COC(=O)C1=CCCCC1S(=O)(=O)Nc1ccc(F)cc1F (stereo not drawn) [Compound 60, [6-[N-(2,4-difluorophenyl)sulfamoyl]-1-cyclohexen-1-yl]carbonyloxyacetic acid] |
| 8.4 µM | CCOC(=O)CNC(=O)c1ccc(NS(=O)(=O)C2CCCC=C2C(=O)OCC)c(Cl)c1 (stereo not drawn) [Compound 63, ethyl 6-[N-[2-chloro-4-(N-ethoxycarbonylmethylcarbamoyl)phenyl]sulfamoyl]-1-cyclohexene-1-carboxylate] |
| 0.59 µM | CCOC(=O)C1=CCCCC1S(=O)(=O)Nc1cccc(F)c1F (stereo not drawn) [Compound 14, ethyl 6-[N-(2,3-difluorophenyl)sulfamoyl]-1-cyclohexene-1-carboxylate] |

| Compound | IC50 |
| --- | --- |
| CCOC(=O)C1=CCCCC1S(=O)(=O)Nc1ccc(CNC(=NC(=O)OC(C)(C)C)NC(=O)OC(C)(C)C)cc1 (stereo not drawn) [Compound 53, ethyl 6-[N-[4-[2,3-bis(t-butoxycarbonyl)guanidinomethyl]phenyl]sulfamoyl]-1-cyclohexene-1-carboxylate] | 2.4 µM |

same assay, conditions: Mus musculus; RAW264.7; LPS 5 ng/ml + interferon gamma 1 U/ml; nitrite ion in culture supernatant after overnight incubation

| Compound | IC50 |
| --- | --- |
| CCOC(=O)C1=CCCCC1S(=O)(=O)Nc1cccc(Cl)c1 (stereo not drawn) [Compound 37, ethyl 6-[N-(3-chlorophenyl)sulfamoyl]-1-cyclohexene-1carboxylate] | 0.13 µM |

same assay, conditions: RAW264.7; LPS 5 ng/ml + interferon gamma 1 U/ml; nitrite ion in culture supernatant after overnight incubation

| IC50 | Compound |
| --- | --- |
| 0.005 µM | d-ethyl 6-[N-(2,4-difluorophenyl)sulfamoyl]-1-cyclohexene-1-carboxylate [Compound 20] |
| 2 µM | CCOC(=O)C1=CCCCC1S(=O)(=O)Nc1ccc(F)cc1F (stereo not drawn) [Compound 19, 1-ethyl 6-[N-(2,4-difluorophenyl)sulfamoyl]-1-cyclohexene-1-carboxylate] |
